Results: PubChem BioAssay AID2060602 (Molecular Pharmacology Branch, DTP, NCI, 2025)

Test system: 648629-189-R-J1-PDC complex spheroids viability
Experiment: Anticancer human tumor 648629-189-R-J1-PDC patient-derived bladder carcinoma cell line growth inhibition [CLK]
Settings: for IC50: curve of first compound; for viability, T/C: stronger effect = lower value
In short: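 Multi-cell-type spheroids combined patient-derived tumor cells with HUVEC endothelial cells and human mesenchymal stem cells. Paired agents were dosed in half-log steps down from about clinical Cmax, or from 10 microM where Cmax was unknown.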
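Wherever viability, T/C is given: drug exposure lasted seven days before viability readout; 100% = DMSO vehicle control wells.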

In the case of C=CC(=O)Nc1cc(Nc2nccc(-c3cn(C)c4ccccc34)n2)c(OC)cc1N(C)CCN(C)C + CN1CCN(c2cc(C(=O)Nc3cc4cc(-c5cnn(C)c5)ccc4cn3)ccn2)CC1, the IC50 (second compound 0.0316 µM) is reported as > 300 nM, the IC50 (second compound 0.1 µM) is reported as > 300 nM and the IC50 (second compound 0.316 µM) is reported as < 0.949 nM. For the same molecule, the IC50 (second compound 1 µM) was < 0.949 nM, the IC50 (second compound 3.16 µM) was < 0.949 nM and the IC50 (second compound 10 µM) was < 0.949 nM. For the same molecule, the viability, T/C (second compound 0.0316 µM, first compound 0.000949 µM) was 104%, the viability, T/C (second compound 0.0316 µM, first compound 0.003 µM) was 109% and the viability, T/C (second compound 0.0316 µM, first compound 0.00949 µM) was 112%. The viability, T/C (second compound 0.0316 µM, first compound 0.03 µM) was 115%, the viability, T/C (second compound 0.0316 µM, first compound 0.0949 µM) was 110% and the viability, T/C (second compound 0.0316 µM, first compound 0.3 µM) was 91.6%. For the same molecule, the viability, T/C (second compound 0.1 µM, first compound 0.000949 µM) was 104%, the viability, T/C (second compound 0.1 µM, first compound 0.003 µM) was 117% and the viability, T/C (second compound 0.1 µM, first compound 0.00949 µM) was 103%. It also gave a viability, T/C (second compound 0.1 µM, first compound 0.03 µM) of 103%, a viability, T/C (second compound 0.1 µM, first compound 0.0949 µM) of 99.1% and a viability, T/C (second compound 0.1 µM, first compound 0.3 µM) of 93%. The viability, T/C (second compound 0.316 µM, first compound 0.000949 µM) was 31.4%, the viability, T/C (second compound 0.316 µM, first compound 0.003 µM) was 42.5% and the viability, T/C (second compound 0.316 µM, first compound 0.00949 µM) was 40.7%. For the same molecule, the viability, T/C (second compound 0.316 µM, first compound 0.03 µM) was 35.6%, the viability, T/C (second compound 0.316 µM, first compound 0.0949 µM) was 33.8% and the viability, T/C (second compound 0.316 µM, first compound 0.3 µM) was 23.6%. The viability, T/C (second compound 1 µM, first compound 0.000949 µM) was 0.28%, the viability, T/C (second compound 1 µM, first compound 0.003 µM) was 0.35% and the viability, T/C (second compound 1 µM, first compound 0.00949 µM) was 1.06%. For the same molecule, the viability, T/C (second compound 1 µM, first compound 0.03 µM) was 0.49%, the viability, T/C (second compound 1 µM, first compound 0.0949 µM) was 0.24% and the viability, T/C (second compound 1 µM, first compound 0.3 µM) was 0.19%. The viability, T/C (second compound 3.16 µM, first compound 0.000949 µM) was 0.13%, the viability, T/C (second compound 3.16 µM, first compound 0.003 µM) was 0.19% and the viability, T/C (second compound 3.16 µM, first compound 0.00949 µM) was 0.15%. For the same molecule, the viability, T/C (second compound 3.16 µM, first compound 0.03 µM) was 0.14%, the viability, T/C (second compound 3.16 µM, first compound 0.0949 µM) was 0.82% and the viability, T/C (second compound 3.16 µM, first compound 0.3 µM) was 0.77%. For the same molecule, the viability, T/C (second compound 10 µM, first compound 0.000949 µM) was 0.24%, the viability, T/C (second compound 10 µM, first compound 0.003 µM) was 2.1% and the viability, T/C (second compound 10 µM, first compound 0.00949 µM) was 0.19%. For the same molecule, the viability, T/C (second compound 10 µM, first compound 0.03 µM) was 0.23%, the viability, T/C (second compound 10 µM, first compound 0.0949 µM) was 0.24% and the viability, T/C (second compound 10 µM, first compound 0.3 µM) was 0.21%.

For CC1(C)CCC(CN2CCN(c3ccc(C(=O)NS(=O)(=O)c4ccc(NCC5CCOCC5)c([N+](=O)[O-])c4)c(Oc4cnc5[nH]ccc5c4)c3)CC2)=C(c2ccc(Cl)cc2)C1 + CN1CCN(c2cc(C(=O)Nc3cc4cc(-c5cnn(C)c5)ccc4cn3)ccn2)CC1, the IC50 (second compound 0.0316 µM) was > 10000 nM, the IC50 (second compound 0.1 µM) was > 10000 nM and the IC50 (second compound 0.316 µM) was < 31.6 nM. For the same molecule, the IC50 (second compound 1 µM) was < 31.6 nM, the IC50 (second compound 3.16 µM) was < 31.6 nM and the IC50 (second compound 10 µM) was < 31.6 nM. For the same molecule, the viability, T/C (second compound 0.0316 µM, first compound 0.0316 µM) was 114%, the viability, T/C (second compound 0.0316 µM, first compound 0.1 µM) was 112% and the viability, T/C (second compound 0.0316 µM, first compound 0.316 µM) was 110%. It also gave a viability, T/C (second compound 0.0316 µM, first compound 1 µM) of 97.4%, a viability, T/C (second compound 0.0316 µM, first compound 3.16 µM) of 86.2% and a viability, T/C (second compound 0.0316 µM, first compound 10 µM) of 66.6%. It also gave a viability, T/C (second compound 0.1 µM, first compound 0.0316 µM) of 112%, a viability, T/C (second compound 0.1 µM, first compound 0.1 µM) of 116% and a viability, T/C (second compound 0.1 µM, first compound 0.316 µM) of 97.4%. The viability, T/C (second compound 0.1 µM, first compound 1 µM) was 107%, the viability, T/C (second compound 0.1 µM, first compound 3.16 µM) was 91.8% and the viability, T/C (second compound 0.1 µM, first compound 10 µM) was 56.1%. It also gave a viability, T/C (second compound 0.316 µM, first compound 0.0316 µM) of 37%, a viability, T/C (second compound 0.316 µM, first compound 0.1 µM) of 52% and a viability, T/C (second compound 0.316 µM, first compound 0.316 µM) of 41.4%. The viability, T/C (second compound 0.316 µM, first compound 1 µM) was 47.8%, the viability, T/C (second compound 0.316 µM, first compound 3.16 µM) was 35.7% and the viability, T/C (second compound 0.316 µM, first compound 10 µM) was 24.2%. For the same molecule, the viability, T/C (second compound 1 µM, first compound 0.0316 µM) was 0.21%, the viability, T/C (second compound 1 µM, first compound 0.1 µM) was 0.41% and the viability, T/C (second compound 1 µM, first compound 0.316 µM) was 0.38%. The viability, T/C (second compound 1 µM, first compound 1 µM) was 0.27%, the viability, T/C (second compound 1 µM, first compound 3.16 µM) was 0.36% and the viability, T/C (second compound 1 µM, first compound 10 µM) was 1.01%. It also gave a viability, T/C (second compound 3.16 µM, first compound 0.0316 µM) of 0.1%, a viability, T/C (second compound 3.16 µM, first compound 0.1 µM) of 0.35% and a viability, T/C (second compound 3.16 µM, first compound 0.316 µM) of 0.14%. The viability, T/C (second compound 3.16 µM, first compound 1 µM) was 0.13%, the viability, T/C (second compound 3.16 µM, first compound 3.16 µM) was 0.12% and the viability, T/C (second compound 3.16 µM, first compound 10 µM) was 0.7%. The viability, T/C (second compound 10 µM, first compound 0.0316 µM) was 0.13%, the viability, T/C (second compound 10 µM, first compound 0.1 µM) was 0.17% and the viability, T/C (second compound 10 µM, first compound 0.316 µM) was 0.16%. For the same molecule, the viability, T/C (second compound 10 µM, first compound 1 µM) was 0.54%, the viability, T/C (second compound 10 µM, first compound 3.16 µM) was 0.17% and the viability, T/C (second compound 10 µM, first compound 10 µM) was 0.16%.
